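Cultured in 96-well plates, cells were exposed to test compound for 48 hours across five concentrations. At the GI50, growth is halved. TGI is the concentration that stops growth completely.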
Key:
Assay in all cases: NCI tumour cell line growth inhibition, 48 h
T-47D breast = test system: T-47D breast
U251 CNS = test system: U251 CNS
HCC-2998 colon = test system: HCC-2998 colon
HOP-62 NSCLC = test system: HOP-62 NSCLC
SK-OV-3 ovarian = test system: SK-OV-3 ovarian
UACC-62 melanoma = test system: UACC-62 melanoma
A549 NSCLC = test system: A549 NSCLC
HS 578T breast = test system: HS 578T breast
CCRF-CEM leukemia = test system: CCRF-CEM leukemia
SF-295 CNS = test system: SF-295 CNS
RPMI-8226 leukemia = test system: RPMI-8226 leukemia
MOLT-4 leukemia = test system: MOLT-4 leukemia
NCI/ADR-RES ovarian = test system: NCI/ADR-RES ovarian
IGROV1 ovarian = test system: IGROV1 ovarian
A498 renal = test system: A498 renal
MALME-3M melanoma = test system: MALME-3M melanoma
MDA-MB-231 breast = test system: MDA-MB-231 breast
SW-620 colon = test system: SW-620 colon
NCI-H226 lung = test system: NCI-H226 lung
PC-3 prostate = test system: PC-3 prostate
SNB-75 CNS = test system: SNB-75 CNS
SK-MEL-28 melanoma = test system: SK-MEL-28 melanoma
MDA-MB-435 = test system: MDA-MB-435
UACC-257 melanoma = test system: UACC-257 melanoma
EKVX NSCLC = test system: EKVX NSCLC
HCT-15 colon = test system: HCT-15 colon
ACHN renal = test system: ACHN renal
DU-145 prostate = test system: DU-145 prostate
K-562 leukemia = test system: K-562 leukemia
NCI-H23 lung = test system: NCI-H23 lung
OVCAR-8 ovarian = test system: OVCAR-8 ovarian
OVCAR-3 ovarian = test system: OVCAR-3 ovarian
OVCAR-5 ovarian = test system: OVCAR-5 ovarian
KM12 colon = test system: KM12 colon
COLO 205 colon = test system: COLO 205 colon
SNB-19 CNS = test system: SNB-19 CNS
NCI-H522 lung = test system: NCI-H522 lung
SK-MEL-5 melanoma = test system: SK-MEL-5 melanoma
OVCAR-4 ovarian = test system: OVCAR-4 ovarian
RXF 393 renal = test system: RXF 393 renal
NCI-H460 lung = test system: NCI-H460 lung
HT29 colon = test system: HT29 colon
CAKI-1 renal = test system: CAKI-1 renal
M14 melanoma = test system: M14 melanoma
SK-MEL-2 melanoma = test system: SK-MEL-2 melanoma
SF-539 CNS = test system: SF-539 CNS
SF-268 CNS = test system: SF-268 CNS
TK-10 renal = test system: TK-10 renal
MCF7 breast = test system: MCF7 breast
HL-60(TB) leukemia = test system: HL-60(TB) leukemia
HOP-92 NSCLC = test system: HOP-92 NSCLC
SN12C renal = test system: SN12C renal
BT-549 breast = test system: BT-549 breast
UO-31 renal = test system: UO-31 renal

Structure (SMILES): CN1CCN(Cc2ccc(NC(=O)c3cccc(C#Cc4cnc(N)c5ncccc45)c3F)cc2C(F)(F)F)CC1
- GI50 (T-47D breast): 5780 nM
- TGI (T-47D breast): 14800 nM
- GI50 (U251 CNS): 741 nM
- TGI (U251 CNS): 1430 nM
- GI50 (HCC-2998 colon): 834 nM
- TGI (HCC-2998 colon): 1600 nM
- GI50 (HOP-62 NSCLC): 1740 nM
- TGI (HOP-62 NSCLC): 8710 nM
- GI50 (SK-OV-3 ovarian): 1390 nM
- TGI (SK-OV-3 ovarian): 7460 nM
- GI50 (UACC-62 melanoma): 2840 nM
- TGI (UACC-62 melanoma): 13100 nM
- GI50 (A549 NSCLC): 747 nM
- TGI (A549 NSCLC): 1580 nM
- GI50 (HS 578T breast): 1290 nM
- TGI (HS 578T breast): 8660 nM
- GI50 (CCRF-CEM leukemia): 1010 nM
- TGI (CCRF-CEM leukemia): 3670 nM
- GI50 (SF-295 CNS): 7060 nM
- TGI (SF-295 CNS): 14700 nM
- GI50 (RPMI-8226 leukemia): 2280 nM
- TGI (RPMI-8226 leukemia): 13200 nM
- GI50 (MOLT-4 leukemia): 770 nM
- TGI (MOLT-4 leukemia): 3060 nM
- GI50 (NCI/ADR-RES ovarian): 1600 nM
- TGI (NCI/ADR-RES ovarian): 5180 nM
- GI50 (IGROV1 ovarian): 476 nM
- TGI (IGROV1 ovarian): 1310 nM
- GI50 (A498 renal): 1590 nM
- TGI (A498 renal): 4610 nM
- GI50 (MALME-3M melanoma): 675 nM
- TGI (MALME-3M melanoma): 1400 nM
- GI50 (MDA-MB-231 breast): 773 nM
- TGI (MDA-MB-231 breast): 1750 nM
- GI50 (SW-620 colon): 620 nM
- TGI (SW-620 colon): 1710 nM
- GI50 (NCI-H226 lung): 647 nM
- TGI (NCI-H226 lung): 1970 nM
- GI50 (PC-3 prostate): 2020 nM
- TGI (PC-3 prostate): 9560 nM
- GI50 (SNB-75 CNS): 1590 nM
- TGI (SNB-75 CNS): 7480 nM
- GI50 (SK-MEL-28 melanoma): 848 nM
- TGI (SK-MEL-28 melanoma): 1590 nM
- GI50 (MDA-MB-435): 789 nM
- TGI (MDA-MB-435): 1530 nM
- GI50 (UACC-257 melanoma): 828 nM
- TGI (UACC-257 melanoma): 1650 nM
- GI50 (EKVX NSCLC): 6570 nM
- TGI (EKVX NSCLC): 13700 nM
- GI50 (HCT-15 colon): 546 nM
- TGI (HCT-15 colon): 1350 nM
- GI50 (ACHN renal): 477 nM
- TGI (ACHN renal): 1090 nM
- GI50 (DU-145 prostate): 614 nM
- TGI (DU-145 prostate): 1410 nM
- GI50 (K-562 leukemia): 5 nM
- TGI (K-562 leukemia): 733 nM
- GI50 (NCI-H23 lung): 3990 nM
- TGI (NCI-H23 lung): 16400 nM
- GI50 (OVCAR-8 ovarian): 828 nM
- TGI (OVCAR-8 ovarian): 1780 nM
- GI50 (OVCAR-3 ovarian): 5070 nM
- TGI (OVCAR-3 ovarian): 12000 nM
- GI50 (OVCAR-5 ovarian): 722 nM
- TGI (OVCAR-5 ovarian): 1520 nM
- GI50 (KM12 colon): 332 nM
- TGI (KM12 colon): 6510 nM
- GI50 (COLO 205 colon): 1170 nM
- TGI (COLO 205 colon): 6070 nM
- GI50 (SNB-19 CNS): 1410 nM
- TGI (SNB-19 CNS): 3720 nM
- GI50 (NCI-H522 lung): 587 nM
- TGI (NCI-H522 lung): 1470 nM
- GI50 (SK-MEL-5 melanoma): 4300 nM
- TGI (SK-MEL-5 melanoma): 12100 nM
- GI50 (OVCAR-4 ovarian): 735 nM
- TGI (OVCAR-4 ovarian): 1590 nM
- GI50 (RXF 393 renal): 613 nM
- TGI (RXF 393 renal): 1300 nM
- GI50 (NCI-H460 lung): 561 nM
- TGI (NCI-H460 lung): 1370 nM
- GI50 (HT29 colon): 677 nM
- TGI (HT29 colon): 1530 nM
- GI50 (CAKI-1 renal): 530 nM
- TGI (CAKI-1 renal): 6340 nM
- GI50 (M14 melanoma): 590 nM
- TGI (M14 melanoma): 1370 nM
- GI50 (SK-MEL-2 melanoma): 522 nM
- TGI (SK-MEL-2 melanoma): 1940 nM
- GI50 (SF-539 CNS): 733 nM
- TGI (SF-539 CNS): 1500 nM
- GI50 (SF-268 CNS): 5130 nM
- TGI (SF-268 CNS): 14700 nM
- GI50 (TK-10 renal): 5670 nM
- TGI (TK-10 renal): 12900 nM
- GI50 (MCF7 breast): 793 nM
- TGI (MCF7 breast): 1720 nM
- GI50 (HL-60(TB) leukemia): 1680 nM
- TGI (HL-60(TB) leukemia): 18700 nM
- GI50 (HOP-92 NSCLC): 1270 nM
- TGI (HOP-92 NSCLC): 4630 nM
- GI50 (SN12C renal): 817 nM
- TGI (SN12C renal): 1590 nM
- GI50 (BT-549 breast): 3100 nM
- TGI (BT-549 breast): 11000 nM
- GI50 (UO-31 renal): 849 nM
- TGI (UO-31 renal): 1540 nM

From PubChem BioAssay (NCI)
